This is an account of results in patent US5039691A, “5-(1-(imidazol)methyl)-3,3-disubstituted-2(3H)furanone derivatives” (Marion Merrell Dow Inc., priority 1990, dated 1991).

Where a name gives a salt, the structure may show the parent alone.

One series has as its system Male Guinea pigs. Nature of the series: Primary in vivo bronchodilator assay for muscarinic antagonists (reversal of carbachol bronchoconstriction). More on the design: species or system guinea pig. To be noted: Cavia porcellus, iv, cumulative dose causing 50% reversal of carbachol bronchoconstriction. On the procedure: PRIMARY IN VIVO BRONCHODILATOR ASSAY FOR MUSCARINIC ANTAGONISTS Male Guinea pigs were anesthetized by urethane. The trachea, carotid artery and jugular vein were cannulated. Animals were ventilated with room air at a constant rate and volume. Airway pressure was measured from a side port of the tracheal catheter, and blood pressure and heart rate were monitored as well. After a stable baseline period, an aerosol of carbachol was administered via an ultrasonic nebulizer. Once the bronchoconstrictor response plateaued, test compound was given in increasing i.v. doses to cause graded, cumulative reductions in airway pressure. If more than a 50% reversal of bronchoconstriction occurred, an ED50 value for bronchodilator potency was calculated using a probit analysis. The ED50 was defined as the cumulative i.v. dose that caused a 50% reversal of bronchoconstriction.

Series [1] concerns the target T1, muscarinic cholinergic receptors on intestinal (ileal-longitudinal) smooth muscle (Cavia porcellus, UniProt H0W1Z3).
T1 construct: The longitudinal muscle, with the myenteric plexus attached, is separated from the underlying circular muscle; from tissue; host or cells: guinea pig ileum, longitudinal smooth muscle with myenteric plexus
Put plainly: Antimuscarinic test: antagonism of carbachol contraction of isolated ileum (Muscarinic Antagonist Activity, Ileum). To be noted: carbachol agonist, 37° C. More on the design: species or system guinea pig.

Series [2] has as its target T2, muscarinic cholinergic receptors on bladder detrusor muscle (Cavia porcellus, UniProt H0W1Z3).
T2 construct: The peritoneal cavity is opened and the bladder is held lightly at its apex; from tissue; host or cells: guinea pig urinary bladder, detrusor strips without mucosa
Put plainly: Antimuscarinic test: antagonism of carbachol contraction of isolated bladder (Muscarinic Antagonist Activity, Bladder). On the set-up: species or system guinea pig. The following applies: bladder detrusor strips, carbachol agonist, 35° C. On the procedure: ANTIMUSCARINIC TEST PROTOCOL
PREPARATION OF BLADDER FOR TESTING
Male albino guinea pigs are killed by decapitation or cervical dislocation. The peritoneal cavity is opened and the bladder is held lightly at its apex, stretched gently, and fat is lifted with fine forceps and dissected away in situ with blunt-tipped scissors as close to the surface of the bladder as possible. The tissue is placed in a latex-bottomed Petri dish that contains a modified Krebs solution (133 mM NaCl, 1.3 mM […], 16.3 mM NaHCO3, 4.7 mM KCl, 0.6 mM MgSO4.7H2 O, 2.5 mM CaCl2.2H2 O, 7.7 mM dextrose) and cut above the neck. The bladder is collapsed into a flat pouch, which is opened by two lateral incisions and unfolded to give a rectangular sheet of tissue approximately 2 cm long and 1 cm wide. The sheet is gently stretched and pinned to the bottom of the Petri dish. Blunt separation of the mucosa, which is visible as a looser superficial pink layer, is started at one end by carefully inserting the blades of micro dissecting scissors between the mucosa and muscle layers and using gentle spreading of the blades, together with steady traction with forceps to tease the two layers apart. Clean removal of the mucosa is usually possible without any fraying or tearing of the underlying muscle. The removal of the mucosa is considered essential for improving oxygen supply to the preparation and for providing better access on both sides of the thin muscle sheet for administered drugs (Ambache and Zar, J. Physiol. 210:671, 1970). The sheet is trimmed, if necessary, and cut longitudinally into four strips.
The strips are tied off with 5-0 silk suture and are then suspended in 10 mL water-jacketed glass tissue baths containing the Krebs solution maintained at 35° C. and aerated with 95% O2 /5% CO2. The suture connects each tissue to an isometric force-displacement transducer (Grass or Gould) coupled to a physiograph. Each preparation is suspended under a resting tension of 0.5 g and allowed to equilibrate for 36 minutes. During this period, the baths are emptied and filled every 12 minutes with 10 mL of warm Krebs buffer. At the end of this period, each muscle strip is conditioned by adding 10 μM carbachol to the baths. The drug remains in contact with each tissue for 1-2 minutes and then is removed by four rapid rinses of 10 mL of warm Krebs buffer. The preparations are allowed to recover for an additional 12 minutes before being used in experiments.
Carbachol is dissolved in saline to produce 2×10^-2 M stock concentrations. Serial dilutions (1:10) in saline or water are made from the stock solution. Appropriate volumes of these solutions are added cumulatively to the 10 mL tissue baths in order to obtain the desired bath concentrations.
PREPARATION OF TEST COMPOUNDS
Compounds that are soluble in water or saline are dissolved in these solvents to produce 2×10^-2 or 2×10^-3 M stock concentrations. Small amounts of IN HCl, NaOH, or 95% ethanol may be added for those agents that are not soluble in water or saline alone. Serial dilutions (1:10) in saline or water are made from the stock solution. Compounds that are insoluble in aqueous solvents are dissolved in dimethylsulfoxide (DMSO) to produce 4×10^-2 M stock solutions. Serial dilutions (1:10) in water are made from the stock solution. Other solvents may be used when appropriate and will be specifically described in the experimental procedure. Appropriate volumes are then added to the baths in order to obtain the desired bath concentrations.
Appropriate volumes of carbachol solutions are cumulatively added to the 10 mL tissue baths to increase the concentration of carbachol in the bath step-by-step without washing out after each single dose. With each concentration step, the tissue contracts isometrically. The next concentration is added only after the preceding contraction has reached a steady value. […]

The next series concerns mammalian heart tissue. The following applies: Pohland, S. African Patent 68 05,631; cited from earlier work.
A further series can be described thus: Solubility. The class given is physicochemical.
For series [3], the system named is isolated guinea pig ileum. To be noted: Kolokouris et al., Ann. Pharm. Fr. 1985; cited from earlier work.

T1 sequence (H0W1Z3 1-590): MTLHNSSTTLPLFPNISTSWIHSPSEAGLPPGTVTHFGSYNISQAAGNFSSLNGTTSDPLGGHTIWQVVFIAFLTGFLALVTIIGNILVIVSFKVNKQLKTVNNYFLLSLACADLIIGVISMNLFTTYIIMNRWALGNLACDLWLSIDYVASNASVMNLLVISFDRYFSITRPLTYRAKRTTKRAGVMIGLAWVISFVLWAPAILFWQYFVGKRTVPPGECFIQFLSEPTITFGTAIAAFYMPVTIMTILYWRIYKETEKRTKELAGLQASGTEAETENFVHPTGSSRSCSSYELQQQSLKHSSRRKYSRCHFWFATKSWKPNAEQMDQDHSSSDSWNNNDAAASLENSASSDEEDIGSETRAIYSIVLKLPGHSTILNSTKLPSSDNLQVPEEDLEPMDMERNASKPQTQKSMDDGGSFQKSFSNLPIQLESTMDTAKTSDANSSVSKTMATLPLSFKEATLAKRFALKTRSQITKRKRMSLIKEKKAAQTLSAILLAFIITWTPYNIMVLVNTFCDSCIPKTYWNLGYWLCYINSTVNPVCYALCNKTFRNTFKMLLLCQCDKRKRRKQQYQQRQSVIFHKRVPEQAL
T2 sequence (H0W1Z3 1-590): as above

Regarding `CCCc1nccn1CC1CC(c2ccccc2)(c2ccccc2)C(=O)O1` (stereo not drawn) [5-[1-(2-n-Propylimidazol)methyl]-4,5-dihydro-3,3-diphenyl-2(3H)furanone hydrochloride], the ED50 in the series with Male Guinea pigs amounted to 1.3 mg/kg. In addition, the results for the antagonist equilibrium constant (Kb) in series [1] and in series [2] were 21 nM and 70 nM, respectively.

Take `C[n+]1ccn(CC2CC(c3ccccc3)(c3ccccc3)C(=O)O2)c1` (stereo not drawn) [5-[1-(3-Methylimidazol)methyl]-4,5-dihydro-3,3-diphenyl-2(3H)furanone bromide hydrate]: in the series on Male Guinea pigs, the median effective dose (ED50) is 1 mg/kg. In addition, the values for the antagonist dissociation constant (Kb) in series [1] and in series [2] were 322 nM and 151 nM, respectively.

`CC(C)c1nccn1CC1CC(c2ccccc2)(c2ccccc2)C(=O)O1` (stereo not drawn) [5-[1-(2-Isopropylimidazol)methyl]-4,5-dihydro-3,3-diphenyl-2(3H)furanone hydrochloride]: in the series with Male Guinea pigs, the ED50 stood at 0.83 mg/kg. Besides, the Kb worked out at 30 nM in series [1] and 33 nM in series [2].

Take `CCc1nccn1C[C@@H]1CC(c2ccccc2)(c2ccccc2)C(=O)O1` [(S)-(-)-5-[1-(2-Ethylimidazol)methyl]-4,5-dihydro-3,3-diphenyl-2(3H)furanone hydrochloride]: the antagonist dissociation constant (Kb) in series [1] was found to be 169 nM; in series [2], 350 nM.

On to `CCN(CC)CC1CC(c2ccccc2)(c2ccccc2)C(=O)O1` (stereo not drawn) [5-[(Diethylamino)-methyl]-4,5-dihydro-3,3-diphenyl-2(3H)furanone], for which the “antiarrhythmic effectiveness in mammalian heart tissue” value in the series with mammalian heart tissue is “antiarrhythmic effectiveness in mammalian heart tissue”.

For the compound `CC(C)c1n(CC2CC(c3ccccc3)(c3ccccc3)C(=O)O2)cc[n+]1C` (stereo not drawn) [5-[1-(2-Isopropyl-3-methylimidazol)methyl]-4,5-dihydro-3,3-diphenyl-2(3H)furanone iodide], the antagonist dissociation constant (Kb) in series [1] was determined as 4 nM; in series [2] it was 2.4 nM.

As for `CCc1nccn1C[C@H]1CC(c2ccccc2)(c2ccccc2)C(=O)O1` [(R)-(+)-5-[1-(2-Ethylimidazol)methyl]-4,5-dihydro-3,3-diphenyl-2(3H)furanone hydrochloride], the antagonist dissociation constant (Kb) in series [1] turned out to be 21 nM; in series [2] it was 129 nM.

With `O=C1OC(Cn2cnc(-c3ccccc3)c2)CC1(c1ccccc1)c1ccccc1` (stereo not drawn) [5-[1-(4-Phenylimidazol)methyl]-4,5-dihydro-3,3-diphenyl-2(3H)furanone hydrochloride hydrate], in the series “Solubility” (bronchodilator test, i.v.), the “Insol. (printed in the bronchodilator ED50 column)” value is “Insol”. The antagonist dissociation constant (Kb) in series [1] was determined as 140 nM.

For the compound `CCCc1n(CC2CC(c3ccccc3)(c3ccccc3)C(=O)O2)cc[n+]1C` (stereo not drawn) [5-[1-(3-Methyl-2-n-propylimidazol-methyl]-4,5-dihydro-3,3-diphenyl-2(3H)furanone iodide], in the series on Male Guinea pigs, the 50% effective dose (ED50) stood at 0.11 mg/kg. For the same compound, the antagonist dissociation constant (Kb) came out at 23 nM in series [1] and 11 nM in series [2].

For “5-[1-(3-Methylimidazol)methyl]-4,5-dihydro-5-methyl-3,3-diphenyl-2(3H)furanone hydrate”, the results for the antagonist equilibrium constant (Kb) in series [1] and in series [2] were 370 nM and 317 nM, respectively.

As for `CN(C)CC1CC(c2ccccc2)(c2ccccc2)OC1=O` (stereo not drawn) [3-[(dimethylamino)methyl]-4,5-dihydro-5,5-diphenyl-2(3H)furanone], the “prevents contractions of isolated guinea pig ileum (spasmolytic)” value in series [3] is on record as “prevents contractions of isolated guinea pig ileum”.

For `CC(C)c1nccn1CC1=CC(c2ccccc2)(c2ccccc2)C(=O)O1` [5-[1-(2-Isopropylimidazol)methyl]-3,3-diphenyl-2(3H)furanone hydrochloride hydrate], the solubility in “Solubility” (in 0.5N HCl and 1 drop of Tween 80) was > 1000 µg/mL. The Kb in series [1] amounted to 31 nM.

For `CCOCc1n(C)cc[n+]1CC1CC(c2ccccc2)(c2ccccc2)C(=O)O1` (stereo not drawn) [5-[1-(Ethoxymethyl-3-methylimidazol)methyl]-4,5-dihydro-3,3-diphenyl-2(3H)furanone iodide], the median effective dose (ED50) with Male Guinea pigs was > 10 mg/kg. For the same compound, the figures for the Kb in series [1] and in series [2] were 253 nM and 339 nM, respectively.

For the compound `CC(C)c1n(CC2CC(c3ccccc3)(c3ccccc3)C(=O)O2)cc[n+]1C` (stereo not drawn) [5-[1-(2-Isopropyl-3-methylimidazol-methyl]-4,5-dihydro-3,3-diphenyl-2(3H)furanone bromide], the Kb is 2.9 nM in series [1] and 0.7 nM in series [2].

Regarding `CC(C)c1nccn1C[C@H]1CC(c2ccccc2)(c2ccccc2)C(=O)O1` [(R)-(+)-5-[1-(2-Isopropylimidazol)methyl]-4,5-dihydro-3,3-diphenyl-2(3H)furanone hydrochloride], the figures for the antagonist equilibrium constant (Kb) in series [1] and in series [2] were 10 nM and 15 nM, respectively.

Consider `CCc1n(CC2CC(c3ccccc3)(c3ccccc3)C(=O)O2)cc[n+]1C` (stereo not drawn) [5-[1-(2-Ethyl-3-methylimidazol)methyl]-4,5-dihydro-3,3-diphenyl-2(3H)furanone bromide], for which the ED50 in the series on Male Guinea pigs amounted to 0.13 mg/kg. Also, the figures for the Kb in series [1] and in series [2] were 8 nM and 5 nM, respectively.

As to `Cc1nccn1CC1CC(c2ccccc2)(c2ccccc2)C(=O)O1` (stereo not drawn) [5-[1-(2-Methylimidazol)methyl]-4,5-dihydro-3,3-diphenyl-2(3H)furanone], the ED50 in the series with Male Guinea pigs was determined as 5.5 mg/kg. For the same compound, the Kb worked out at 107 nM in series [1] and 238 nM in series [2].

With `CCc1nccn1CC1CC(c2ccccc2)(c2ccccc2)C(=O)O1` (stereo not drawn) [5-[1-(2-Ethylimidazol)methyl]-4,5-dihydro-3,3-diphenyl-2(3H)furanone hydrochloride], the ED50 in the series on Male Guinea pigs came out at 4 mg/kg. In addition, the Kb was 68 nM in series [1] and 86 nM in series [2].
